The record followed here is ChEMBL document CHEMBL3124912, “Combination of amino acid/dipeptide with nitric oxide donating oleanolic acid derivatives as PepT1 targeting antitumor prodrugs” (J Med Chem, 2014).

Series [1] has as its system HepG2. The series can be described thus: Cytotoxicity against human HepG2 cells after 48 hrs by CCK-8 assay. It counts as functional, cell-based. The settings on record: HepG2, 48 h. (In general: Tetrazolium assays rely on reduction of a dye to a coloured formazan, in cell work by metabolically active cells.)
Series [2] deals with MCF7. The series can be described thus: Cytotoxicity against human MCF7 cells after 48 hrs by CCK-8 assay. It counts as functional, cell-based. The settings on record: MCF7, 48 h.
Series [3] deals with A549. The series can be described thus: Cytotoxicity against human A549 cells after 48 hrs by CCK-8 assay. It counts as functional, cell-based. The settings on record: A549, 48 h.
For series [4], the system named is HCT-116. Description: Cytotoxicity against human HCT116 cells after 48 hrs by CCK-8 assay. It counts as functional, cell-based. The settings on record: HCT-116, 48 h.
For series [5], the system named is PepT1. Description: Effective permeability in Sprague-Dawley rat single-pass intestinal perfusion model assessed as PepT1-mediated drug transport at 0.1 mM administered in HEPES buffer at pH 7.4 via PVC tubing after 20 to 120 mins by HPLC analysis. It is filed as ADME, organism-based. The settings on record: other: intestinal perfusion via PVC tubing, read-out: Peff.

Series [6] can be described thus: Aqueous equilibrium solubility of the compound after 24 hrs by HPLC analysis. It counts as physicochemical. The settings on record: water (aqueous).
Series [7] relates to PepT1. The series can be described thus: Effective permeability in Sprague-Dawley rat single-pass intestinal perfusion model assessed as PepT1-mediated drug transport at 0.1 mM administered in MES buffer at pH 6 via PVC tubing after 20 to 120 mins by HPLC analysis. It is filed as ADME, organism-based. The settings on record: other: intestinal perfusion via PVC tubing, read-out: Peff.

Series [8] is described as follows: Cytotoxicity against human LO2 cells at 0.02 to 10 uM after 48 hrs by CCK-8 assay. It counts as cell-based. The settings on record: l02, 48 h.
The subject of series [9] is L02. The series can be described thus: Induction of human LO2 cell growth at 0.02 to 10 uM after 48 hrs by CCK-8 assay. It is filed as functional, cell-based.
The test system of series [10] is PepT1. Description: Effective permeability in Sprague-Dawley rat single-pass intestinal perfusion model assessed as PepT1-mediated drug transport at 0.1 mM administered in MES buffer at pH 6 via PVC tubing after 20 to 120 mins by HPLC analysis in presence of Gly-Sar. It counts as ADME, organism-based. The settings on record: other: intestinal perfusion via PVC tubing, pH 6, with Gly-Sar (concentration not stated), read-out: Peff.

The nature of series [11]: Chemical stability in HEPES buffer assessed as compound remaining at 37 degC up to 2 hrs by HPLC analysis. It counts as physicochemical. The settings on record: read-out: Stability.
A short description of series [12]: Chemical stability in MES buffer assessed as compound remaining at 37 degC up to 2 hrs by HPLC analysis. It counts as physicochemical. The settings on record: read-out: Stability.
A short description of series [13]: Induction of nitric oxide release in PBS at 100 uM at pH 7.4 after 24 hrs by Griess method in presence of rat serum. The settings on record: pH 7.4, 24 h.
A short description of series [14]: Induction of nitric oxide release in PBS at 100 uM at pH 7.4 after 24 hrs by Griess method. The settings on record: buffer, pH 7.4, 24 h.
Series [15] in a line: Cytotoxicity against human LO2 cells assessed as cell survival at 50 uM after 48 hrs by CCK-8 assay relative to control. The settings on record: read-out: Survival. It is filed as cell-based, L02.
Series [16] relates to A549. Description: Ratio of cisplatin IC50 to compound IC50 for human A549 cells. It counts as functional.

Structures are written as SMILES. Converted amounts (≈) assume the structure as drawn. The source made the active and inactive calls. No cut-off for these calls is given here. Bounds are passed on as bounds.

What is called IC50 is the concentration at which inhibition is half-maximal. For the molecule `CC[C@H](C)[C@H](N)C(=O)OCCOC(=O)[C@]12CCC(C)(C)C[C@H]1C1=CC[C@@H]3[C@@]4(C)CC[C@H](OC(=O)CO[N+](=O)[O-])C(C)(C)[C@@H]4CC[C@@]3(C)[C@]1(C)CC2`, the IC50 in [1] was 16.3 µM; in [2] it was 74 µM; in series [3], 17.7 µM; in series [4], above 150 µM.
One may read the thermodynamic solubility as the concentration in solution at equilibrium with solid. As to `CC(C)[C@H](N)C(=O)OCCOC(=O)[C@]12CCC(C)(C)C[C@H]1C1=CC[C@@H]3[C@@]4(C)CC[C@H](O)C(C)(C)[C@@H]4CC[C@@]3(C)[C@]1(C)CC2.Cl`, the Papp at 100 µM in [5] came out at 41.5 ×10⁻⁶ cm/s. In series [6], the thermodynamic solubility at 24 h is 25.2 µg/mL. Besides, the IC50 in series [1] is 96.7 µM; in series [2] it was above 150 µM; in [3] it was 68.1 µM; in series [4], above 150 µM.
With `CC(COC(=O)[C@]12CCC(C)(C)C[C@H]1C1=CC[C@@H]3[C@@]4(C)CC[C@H](O)C(C)(C)[C@@H]4CC[C@@]3(C)[C@]1(C)CC2)OC(=O)[C@@H](NC(=O)[C@@H](N)C(C)C)C(C)C` (stereo partly drawn), the IC50 in series [1] was 73.1 µM; in series [2] it was above 150 µM; in [3], 64.3 µM; in series [4], 133 µM.
For `CC1(C)CC[C@]2(C(=O)O)CC[C@]3(C)C(=CC[C@@H]4[C@@]5(C)CC[C@H](O)C(C)(C)[C@@H]5CC[C@]43C)[C@@H]2C1` [OLEANOLIC_ACID], the Papp at 100 µM in [7] worked out at 31.6 ×10⁻⁶ cm/s; in series [5], 31.7 ×10⁻⁶ cm/s. The molecule further returned a solubility (thermodynamic) at 24 h in series [6] of 0.012 µg/mL (≈ 0.0263 µM). Besides, the IC50 in series [1] was 51.4 µM; in series [2], above 150 µM; in series [3], 81.4 µM; in series [4] it was above 150 µM. For the same molecule, the Activity result in series [8] is on record as “Non-toxic”. In addition, in [9], the result was Active.
Regarding `CC(C)[C@H](N)C(=O)N[C@H](C(=O)OCCOC(=O)[C@]12CCC(C)(C)C[C@H]1C1=CC[C@@H]3[C@@]4(C)CC[C@H](OC(=O)CO[N+](=O)[O-])C(C)(C)[C@@H]4CC[C@@]3(C)[C@]1(C)CC2)C(C)C.Cl`, the Papp at 100 µM in [10] came to 16.3 ×10⁻⁶ cm/s; in series [7], 46 ×10⁻⁶ cm/s; in series [5], 23.4 ×10⁻⁶ cm/s. Further, the figures for the remaining at 2 h in series [11] and in [12] were 98.2% and 100%, respectively. This molecule also yielded a thermodynamic solubility at 24 h in series [6] of 22.3 µg/mL. Further, the results for the Activity result in series [13], in [14] and in series [8] were “Active”, 9.9% and “Non-toxic”, respectively. Also, the viability at 48 h, 50 µM in series [15] came to 60%. Besides, the IC50 in series [1] stood at 2.8 µM; in series [2], 15 µM; in series [3], 2.4 µM; in series [4], 15.5 µM. In series [16], the “Ratio IC50” value was found to be 7. Moreover, the result in series [9] was Active.
For `CC(C)[C@H](N)C(=O)OCCOC(=O)[C@]12CCC(C)(C)C[C@H]1C1=CC[C@@H]3[C@@]4(C)CC[C@H](OC(=O)CO[N+](=O)[O-])C(C)(C)[C@@H]4CC[C@@]3(C)[C@]1(C)CC2.Cl`, the Papp at 100 µM in [10] came to 25.3 ×10⁻⁶ cm/s; in [7], 33.2 ×10⁻⁶ cm/s; in series [5], 20.3 ×10⁻⁶ cm/s. Also, the remaining at 2 h came to 98.5% in [11] and 100% in series [12]. The molecule further showed a solubility (thermodynamic) at 24 h in series [6] of 18.6 µg/mL. The figures for the Activity entry in series [13], in series [14] and in series [8] were “Active”, 6.7% and “Non-toxic”, respectively. For the same molecule, the viability at 48 h, 50 µM in [15] amounted to 60%. In addition, the IC50 came out at 10.7 µM in series [1], 25.5 µM in series [2], 7.5 µM in series [3] and 24.9 µM in series [4]. Moreover, in [16], the “Ratio IC50” value worked out at 2. Also, the result in series [9] was Active.
On to `C[C@H](N)C(=O)OCCOC(=O)[C@]12CCC(C)(C)C[C@H]1C1=CC[C@@H]3[C@@]4(C)CC[C@H](OC(=O)CO[N+](=O)[O-])C(C)(C)[C@@H]4CC[C@@]3(C)[C@]1(C)CC2`, for which the 50% inhibitory concentration (IC50) turned out to be 23.2 µM in [1], 48 µM in series [2], 28.1 µM in series [3] and 32.8 µM in series [4].
The matching figures for `CC(C)[C@H](NC(=O)[C@H](C)N)C(=O)OCCOC(=O)[C@]12CCC(C)(C)C[C@H]1C1=CC[C@@H]3[C@@]4(C)CC[C@H](OC(=O)CO[N+](=O)[O-])C(C)(C)[C@@H]4CC[C@@]3(C)[C@]1(C)CC2`: 22.1 µM, 83.2 µM, 9.6 µM and 24.7 µM.
